How the values were obtained:
hGPR17 [1] = target: T1, hGPR17 (Homo sapiens, UniProt Q13304); test: Single cell calcium imaging in 1321N1 cells expressing hGPR17; assay type: cell-based; parameters: expressed in transfected cells; host or cells: 1321N1 (A1, A5), COS-7 (A3, A6), HEK-293 (A4); pcDNA3.1
Source text: Polychrome IV (TILL Photonics, Germany) was used as light source. Fura-2 and EGFP fluorescence images were collected with a PCO Super […] (Axon Instruments, Forest City, Calif.) and analyzed with the Axon Imaging Workbench 2.2 software (Axon Instruments).

rat GPR17 = target: T2, rat GPR17 (Rattus norvegicus, UniProt Q09QM4); test: [35S]GTPγS binding to membranes of 1321N1 cells expressing rat GPR17; assay type: biochemical; settings: agonist; 1321N1 cells expressing rat GPR17
T2 construct: expressed in transfected cells; host or cells: 1321N1; pcDNA3.1
T2 sequence (Q09QM4 whole entry): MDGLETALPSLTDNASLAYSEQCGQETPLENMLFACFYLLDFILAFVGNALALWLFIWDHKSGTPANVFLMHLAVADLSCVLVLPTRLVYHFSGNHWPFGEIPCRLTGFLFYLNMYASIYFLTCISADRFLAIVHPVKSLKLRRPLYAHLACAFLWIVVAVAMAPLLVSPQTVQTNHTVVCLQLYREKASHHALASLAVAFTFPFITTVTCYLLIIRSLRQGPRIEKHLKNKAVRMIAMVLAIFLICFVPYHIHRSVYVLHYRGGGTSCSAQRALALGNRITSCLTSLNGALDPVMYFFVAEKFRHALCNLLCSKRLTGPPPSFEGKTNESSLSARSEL
Method: (§1) [^35S]GTPγS Binding Assay. 1321N1 cells, COS-7 and HEK-293 cells (control and transfected cells) were homogenized in 5 mM TRIS-HCl, 2 mM EDTA, pH 7.4 and centrifuged at 48000 g for 15 min at 4° C. The resulting pellets (plasma membranes) were washed in 50 mM TRIS-HCl, 10 mM MgCl2, pH 7.4 and stored at −80° C. until used. Measurement of nucleotide-stimulated [^35S]GTPγS binding to membranes of cells expressing the human or rat GPR17 receptor was performed as previously described^9-11.
To identify the endogenous ligand of GPR17, the cDNAs from human and rat GPR17 were cloned into the mammalian expression vector pcDNA3.1 and transfected in 1321N1, COS-7 and HEK-293 cells for functional characterization. GPR17 activation was assessed by testing the ability of exogenously-added ligands to increase [^35S]GTPγS binding to purified membranes obtained from transfected cells^9-11. […] The specificity of GPR17 responses were also challenged by assessing the ability of some purinergic and leukotriene receptor antagonists to counteract the increase of [^35S]GTPγS binding evoked by nucleotides and cys-LTs in 1321N1 cells expressing either the human or rat receptor. […] Because both P2Y^2,11,12 and CysLT receptors^3,13 may couple to G proteins of the Gi subfamily, to evaluate the involvement of this class of G-proteins, we preincubated 1321N1 cells expressing hGPR17 with pertussis toxin (PTX) which inactivates Gi proteins, prior to membrane preparation and [^35S]GTPγS binding.
Table 1. Potency of various ligands on [^35S]GTPγS binding to membranes obtaind from 1321N1 cells-transfected with human or rat GPR17. […] All data represent the mean of triplicate determinations from 4-9 independent experiments.

hGPR17 [2] = target: T1, hGPR17; test: [35S]GTPγS binding, HEK-293 cells expressing hGPR17; assay type: biochemical; parameters: expressed in transfected cells; host or cells: HEK-293 (A4); pcDNA3.1; settings: HEK-293 cells transfected with hGPR17
Method: as §1
To identify the endogenous ligand of GPR17, the cDNAs from human and rat GPR17 were cloned into the mammalian expression vector pcDNA3.1 and transfected in 1321N1, COS-7 and HEK-293 cells for functional characterization. GPR17 activation was assessed by testing the ability of exogenously-added ligands to increase [^35S]GTPγS binding to purified membranes obtained from transfected cells^9-11. […] The specificity of GPR17 responses were also challenged by assessing the ability of some purinergic and leukotriene receptor antagonists to counteract the increase of [^35S]GTPγS binding evoked by nucleotides and cys-LTs in 1321N1 cells expressing either the human or rat receptor. […]

T1 sequence (Q13304 29-367): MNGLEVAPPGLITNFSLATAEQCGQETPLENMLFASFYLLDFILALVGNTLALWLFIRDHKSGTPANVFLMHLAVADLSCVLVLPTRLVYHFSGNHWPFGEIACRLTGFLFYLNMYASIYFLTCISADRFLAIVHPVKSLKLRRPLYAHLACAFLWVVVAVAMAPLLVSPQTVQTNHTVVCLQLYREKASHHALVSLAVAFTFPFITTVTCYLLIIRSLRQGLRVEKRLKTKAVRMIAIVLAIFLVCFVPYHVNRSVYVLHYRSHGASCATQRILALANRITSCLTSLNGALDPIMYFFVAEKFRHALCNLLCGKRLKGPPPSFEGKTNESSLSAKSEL

O=c1ccn([C@@H]2O[C@H](COP(=O)(O)OP(=O)(O)O)[C@@H](O)[C@H]2O)c(=O)[nH]1 [UDP]
cells showing rise of [Ca2+]i (hGPR17 [1]): approximately 30% | EC50 (rat GPR17): 4.6 ± 0.6 µM | response in [35S]GTPγS binding (hGPR17 [2]): induced responses

Source: patent US8158593B2, “GPR17 modulators, method of screening and uses thereof” (Universita' degli Studi di Milano, priority 2004, dated 2012)
